The text below walks through data of US10556888B2, “Pyrazole compounds or salts thereof, preparation methods therefor, herbicidal compositions and use thereof” (QINGDAO KINGAGROOT CHEMICAL COMPOUNDS CO., LTD, priority 2015, dated 2020).

Common to all, as to type: in vivo
The subject of data set [1] is Monocotyledonous and dicotyledonous weed. In words: Post-emergence test experiment, weed control effect (Table 2). Details: key to weed control effect, Setaria viridis (level) / weed control effect, Rorippa indica (level) / weed control effect, Abutilon theophrasti (level) / weed control effect, Echinochloa crus-galli (level) / weed control effect, Digitaria sanguinalis (level): Level 10: completely dead; Level 9: above 90% growth inhibition rate; Level 8: above 80% growth inhibition rate; Level 7: above 70% growth inhibition rate; Level 6: above 60% growth inhibition rate; Level 5: above 50% growth inhibition rate; Level 4: above 30% growth inhibition rate; Level 3: above 20% growth inhibition rate; Level 2: above 10% growth inhibition rate; Level 1: above 1-10% growth inhibition rate; Level 0: no effect. Conditions: 3 weeks after spraying, greenhouse. The essentials: (§1)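 Weed and crop seeds (wheat, corn, rice, soybean, cotton, oilseed, millet, sorghum) grown in soil in greenhouse; sprayed at 2-3 leaf stage, 2-3 weeks after sowing, with compound in acetone/Tween 80/water. Effects assessed after 3 weeks further greenhouse culture.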

For data set [2], the system named is main crop (wheat, corn, rice, soybean, cotton, oilseed, millet and sorghum). In words: Post-emergence test experiment, main crops (Table 2). Conditions: 3 weeks after spraying, greenhouse. Set-up: key: Level 10: completely dead; Level 9: above 90% growth inhibition rate; Level 8: above 80% growth inhibition rate; Level 7: above 70% growth inhibition rate; Level 6: above 60% growth inhibition rate; Level 5: above 50% growth inhibition rate; Level 4: above 30% growth inhibition rate; Level 3: above 20% growth inhibition rate; Level 2: above 10% growth inhibition rate; Level 1: above 1-10% growth inhibition rate; Level 0: no effect. The essentials:
as §1

Data set [3] relates to Echinochloa crus-galli. Kind of data set: Weed control effect evaluation in transplanted rice field. Details: key: Level 10: completely dead; Level 9: above 90% growth inhibition rate; Level 8: above 80% growth inhibition rate; Level 7: above 70% growth inhibition rate; Level 6: above 60% growth inhibition rate; Level 5: above 50% growth inhibition rate; Level 4: above 30% growth inhibition rate; Level 3: above 20% growth inhibition rate; Level 2: above 10% growth inhibition rate; Level 1: above 1-10% growth inhibition rate; Level 0: no effect. Particulars: transplanted rice field pot test, 14 days after treatment. The procedure:
(§2) Rice field soil was loaded into a 1/1,000,000 ha pot. The seeds of Echinochloa, Scirpus juncoides, Bidens tripartite and Sagittaria trifolia were sowed and gently covered with soil, then left to stand still in greenhouse in the state of 0.5-1 cm of water storage. The tuber of Sagittaria trifolia was planted in the next day or 2 days later. It was kept at 3-4 cm of water storage thereafter. The weeds were treated by dripping the WP or SC water diluents prepared according to the common preparation method of the compounds of the present invention with pipette homogeneously to achieve specified effective amount when Echinochloa, Scirpus juncoides and Bidens tripartite reached 0.5 leaf stage and Sagittaria trifolia reached the time point of primary leaf stage.
(§3) The fertility condition of Echinochloa, Scirpus juncoides, Bidens tripartite and Sagittaria trifolia 14 days after the treatment of the compound of the invention and the fertility condition of rice 21 days after the treatment of the compound of the invention respectively with the naked eye.
(§4) The seeds of Echinochloa crus-galli, Scirpus juncoides and Monochoria vaginalis were collected from Heilongjing and Jiangsu Province of China.

For data set [4], the system named is Monochoria vaginalis. The description is as above. Set-up: key: Level 10: completely dead; Level 9: above 90% growth inhibition rate; Level 8: above 80% growth inhibition rate; Level 7: above 70% growth inhibition rate; Level 6: above 60% growth inhibition rate; Level 5: above 50% growth inhibition rate; Level 4: above 30% growth inhibition rate; Level 3: above 20% growth inhibition rate; Level 2: above 10% growth inhibition rate; Level 1: above 1-10% growth inhibition rate; Level 0: no effect. Conditions: transplanted rice field pot test, 14 days after treatment. As for the experimental part:
as §2, §3, §4

In data set [5] the test system is Scirpus juncoides. The description is as above. Details: key: Level 10: completely dead; Level 9: above 90% growth inhibition rate; Level 8: above 80% growth inhibition rate; Level 7: above 70% growth inhibition rate; Level 6: above 60% growth inhibition rate; Level 5: above 50% growth inhibition rate; Level 4: above 30% growth inhibition rate; Level 3: above 20% growth inhibition rate; Level 2: above 10% growth inhibition rate; Level 1: above 1-10% growth inhibition rate; Level 0: no effect. Conditions: transplanted rice field pot test, 14 days after treatment. The procedure:
as §2, §3, §4

Data set [6] concerns Rice. In words: Transplanted rice safety evaluation. Set-up: key: Level 10: completely dead; Level 9: above 90% growth inhibition rate; Level 8: above 80% growth inhibition rate; Level 7: above 70% growth inhibition rate; Level 6: above 60% growth inhibition rate; Level 5: above 50% growth inhibition rate; Level 4: above 30% growth inhibition rate; Level 3: above 20% growth inhibition rate; Level 2: above 10% growth inhibition rate; Level 1: above 1-10% growth inhibition rate; Level 0: no effect. Conditions: transplanted 3 leaf stage japonica rice, 21 days after treatment. The procedure: In addition, the rice field soil that loaded into the 1/1,000,000 ha pot was leveled to keep water storage at 3-4 cm depth. The 3 leaf stage rice (japonica rice) was transplanted at 3 cm of transplanting depth the next day. The compound of the present invention was treated by the same way after 5 days of transplantation. The fertility condition of Echinochloa, Scirpus juncoides, Bidens tripartite and Sagittaria trifolia 14 days after the treatment of the compound of the invention and the fertility condition of rice 21 days after the treatment of the compound of the invention respectively with the naked eye.

For `Cc1nn(C)cc1C(=O)Oc1c(C(=O)c2ccc(S(C)(=O)=O)c(Cn3cc(Cl)cn3)c2Cl)c(C2CC2)nn1C` [Compound 10], in data set [1] (120 g/ha), the “weed control effect, Abutilon theophrasti (level)” value is 7 (Level 7: above 70% growth inhibition rate); the “weed control effect, Bidens pilosa (level)” value is given as 9 (Level 9: above 90% growth inhibition rate); the “weed control effect, Digitaria sanguinalis (level)” value is 2 (Level 2: above 10% growth inhibition rate); the “weed control effect, Echinochloa crus-galli (level)” value came out at 10. Further, in data set [1] (120 g/ha), the “weed control effect, Rorippa indica (level)” value is 10 and the “weed control effect, Setaria viridis (level)” value is listed as 7 (Level 7: above 70% growth inhibition rate). In addition, in data set [2] (120 g/ha), the “effect on crop, corn (level)” value worked out at 0; the “effect on crop, rice (level)” value was 1 (Level 1: above 1-10% growth inhibition rate); the “effect on crop, wheat (level)” value was found to be 0. Also, the “Weed control effect, Echinochloa crus-galli (activity level)” value in data set [3] (application rate 500 g/ha) was found to be 10. In data set [4] (application rate 500 g/ha), the “Weed control effect, Monochoria vaginalis (activity level)” value came to 10. Besides, in data set [5] (application rate 500 g/ha), the “Weed control effect, Scirpus juncoides (activity level)” value (shortened to “Weed control effect, Scirpus juncoides”) stood at 10. The “Rice (safety, activity level)” value in data set [6] (application rate 500 g/ha) is recorded as 1 (Level 1: above 1-10% growth inhibition rate).
As for `CCOc1c(C(=O)Oc2c(C(=O)c3ccc(S(C)(=O)=O)c(Cn4ccc(C)n4)c3Cl)cnn2C)cnn1C` [Compound 24], in data set [1] (120 g/ha), the “weed control effect, Abutilon theophrasti (level)” value is 6 (Level 6: above 60% growth inhibition rate); the “weed control effect, Bidens pilosa (level)” value was 6 (Level 6: above 60% growth inhibition rate); the “weed control effect, Digitaria sanguinalis (level)” value is recorded as 1 (Level 1: above 1-10% growth inhibition rate); the “weed control effect, Echinochloa crus-galli (level)” value is 9 (Level 9: above 90% growth inhibition rate). Besides, in data set [1] (120 g/ha), the “weed control effect, Rorippa indica (level)” value was 4 (Level 4: above 30% growth inhibition rate) and the “weed control effect, Setaria viridis (level)” value is recorded as 2 (Level 2: above 10% growth inhibition rate). Also, in data set [2] (120 g/ha), the “effect on crop, corn (level)” value turned out to be 0; the “effect on crop, rice (level)” value is given as 0; the “effect on crop, wheat (level)” value came to 0. Further, the “Weed control effect, Echinochloa crus-galli (activity level)” value in data set [3] (application rate 60 g/ha) is 10. Further, the “Weed control effect, Monochoria vaginalis (activity level)” value in data set [4] (application rate 60 g/ha) was 9 (Level 9: above 90% growth inhibition rate). For the same compound, the “Weed control effect, Scirpus juncoides” value in data set [5] (application rate 60 g/ha) was determined as 10. Besides, the “Rice (safety, activity level)” value in data set [6] (application rate 60 g/ha) is reported as 1 (Level 1: above 1-10% growth inhibition rate).
Turning to `COCC(C)OCc1c(S(C)(=O)=O)ccc(C(=O)c2c(C)nn(C)c2OC(=O)c2cn(C)nc2C)c1Cl` (stereo not drawn) [Compound 36], in data set [1] (60 g/ha), the “weed control effect, Abutilon theophrasti (level)” value is reported as 10; the “weed control effect, Bidens pilosa (level)” value was 8 (Level 8: above 80% growth inhibition rate); the “weed control effect, Digitaria sanguinalis (level)” value was found to be 10; the “weed control effect, Echinochloa crus-galli (level)” value is given as 10. Moreover, in data set [1] (60 g/ha), the “weed control effect, Rorippa indica (level)” value was 10 and the “weed control effect, Setaria viridis (level)” value was 7 (Level 7: above 70% growth inhibition rate). In data set [2] (60 g/ha), the “effect on crop, corn (level)” value is given as 0; the “effect on crop, rice (level)” value is 1 (Level 1: above 1-10% growth inhibition rate); the “effect on crop, wheat (level)” value came to 0. For the same compound, the “Weed control effect, Echinochloa crus-galli (activity level)” value in data set [3] (application rate 60 g/ha) is 9 (Level 9: above 90% growth inhibition rate). In addition, the “Weed control effect, Monochoria vaginalis (activity level)” value in data set [4] (application rate 60 g/ha) is given as 10. For the same compound, the “Weed control effect, Scirpus juncoides” value in data set [5] (application rate 60 g/ha) was 10. Also, in data set [6] (application rate 60 g/ha), the “Rice (safety, activity level)” value is 0.
For `Cc1nn(C)cc1C(=O)Oc1c(C(=O)c2ccc(S(C)(=O)=O)c(COCC(F)F)c2Cl)cnn1C` [Compound 40], in data set [1] (30 g/ha), the “weed control effect, Abutilon theophrasti (level)” value is 7 (Level 7: above 70% growth inhibition rate); the “weed control effect, Bidens pilosa (level)” value is reported as 7 (Level 7: above 70% growth inhibition rate); the “weed control effect, Digitaria sanguinalis (level)” value is reported as 10; the “weed control effect, Echinochloa crus-galli (level)” value is listed as 10. Also, in data set [1] (30 g/ha), the “weed control effect, Rorippa indica (level)” value is reported as 10 and the “weed control effect, Setaria viridis (level)” value is recorded as 9 (Level 9: above 90% growth inhibition rate). Moreover, in data set [2] (30 g/ha), the “effect on crop, corn (level)” value was determined as 0; the “effect on crop, rice (level)” value is given as 5 (Level 5: above 50% growth inhibition rate); the “effect on crop, wheat (level)” value stood at 0. Besides, in data set [3] (application rate 60 g/ha), the “Weed control effect, Echinochloa crus-galli (activity level)” value is given as 10. In addition, in data set [4] (application rate 60 g/ha), the “Weed control effect, Monochoria vaginalis (activity level)” value is 9 (Level 9: above 90% growth inhibition rate). The “Weed control effect, Scirpus juncoides” value in data set [5] (application rate 60 g/ha) is reported as 9 (Level 9: above 90% growth inhibition rate). Also, in data set [6] (application rate 60 g/ha), the “Rice (safety, activity level)” value is 0.
`CCOCc1c(S(C)(=O)=O)ccc(C(=O)c2c(C3CC3)nn(C)c2OC(=O)c2cn(C)nc2C)c1Cl` [Compound 46]: in data set [1] (30 g/ha), the “weed control effect, Abutilon theophrasti (level)” value was 7 (Level 7: above 70% growth inhibition rate); the “weed control effect, Bidens pilosa (level)” value was 7 (Level 7: above 70% growth inhibition rate); the “weed control effect, Digitaria sanguinalis (level)” value is on record as 10; the “weed control effect, Echinochloa crus-galli (level)” value is reported as 10. Moreover, in data set [1] (30 g/ha), the “weed control effect, Rorippa indica (level)” value stood at 10 and the “weed control effect, Setaria viridis (level)” value came to 10. Moreover, in data set [2] (30 g/ha), the “effect on crop, corn (level)” value was 1 (Level 1: above 1-10% growth inhibition rate); the “effect on crop, rice (level)” value is 3 (Level 3: above 20% growth inhibition rate); the “effect on crop, wheat (level)” value came to 0. In addition, the “Weed control effect, Echinochloa crus-galli (activity level)” value in data set [3] (application rate 60 g/ha) is listed as 8 (Level 8: above 80% growth inhibition rate). The “Weed control effect, Monochoria vaginalis (activity level)” value in data set [4] (application rate 60 g/ha) was 9 (Level 9: above 90% growth inhibition rate). In addition, the “Weed control effect, Scirpus juncoides” value in data set [5] (application rate 60 g/ha) is 9 (Level 9: above 90% growth inhibition rate). In data set [6] (application rate 60 g/ha), the “Rice (safety, activity level)” value worked out at 0.
Regarding `COCc1c(S(C)(=O)=O)ccc(C(=O)c2c(C3CC3)nn(C)c2OC(=O)c2cn(C)nc2C)c1Cl` [Compound 51], in data set [1] (30 g/ha), the “weed control effect, Abutilon theophrasti (level)” value is 7 (Level 7: above 70% growth inhibition rate); the “weed control effect, Bidens pilosa (level)” value is recorded as 7 (Level 7: above 70% growth inhibition rate); the “weed control effect, Digitaria sanguinalis (level)” value was 10; the “weed control effect, Echinochloa crus-galli (level)” value was found to be 10. For the same compound, in data set [1] (30 g/ha), the “weed control effect, Rorippa indica (level)” value is 10 and the “weed control effect, Setaria viridis (level)” value stood at 10. In data set [2] (30 g/ha), the “effect on crop, corn (level)” value is 4 (Level 4: above 30% growth inhibition rate); the “effect on crop, rice (level)” value was 3 (Level 3: above 20% growth inhibition rate); the “effect on crop, wheat (level)” value is 0. In addition, the “Weed control effect, Echinochloa crus-galli (activity level)” value in data set [3] (application rate 60 g/ha) is 10. For the same compound, in data set [4] (application rate 60 g/ha), the “Weed control effect, Monochoria vaginalis (activity level)” value came out at 10. Moreover, in data set [5] (application rate 60 g/ha), the “Weed control effect, Scirpus juncoides” value is given as 9 (Level 9: above 90% growth inhibition rate). Moreover, the “Rice (safety, activity level)” value in data set [6] (application rate 60 g/ha) amounted to 0.
